Laboratory results from ChEMBL document CHEMBL1122352, “Synthesis and antitumor activity of 2-beta-D-ribofuranosylselenazole-4-carboxamide and related derivatives” (1983).

Key:
Format in all cases: functional
Mus musculus [1] = test: Evaluated for median life span in mice inoculated with lewis lung carcinoma at a dose of 9 mg/kg
Mus musculus [2] = test: Evaluated for median life span in mice inoculated with lewis lung carcinoma at a dose of 75 mg/kg
Mus musculus [3] = test: Evaluated for median life span in mice inoculated with lewis lung carcinoma at a dose of 33 mg/kg
Mus musculus [4] = test: Evaluated for median life span in mice inoculated with lewis lung carcinoma at a dose of 50 mg/kg
Mus musculus [5] = test: Evaluated for median life span in mice inoculated with lewis lung carcinoma at a dose of 13 mg/kg
Mus musculus [6] = test: Evaluated for median life span in mice inoculated with lewis lung carcinoma at a dose of 20 mg/kg
L1210 [7] = test: Evaluated for cytotoxicity to L1210 cells; conditions: Mus musculus, read-out: ID50 (the source's name)
Mus musculus [8] = test: Evaluated for increase in life span in mice inoculated with lewis lung carcinoma at a dose of 13 mg/kg
Mus musculus [9] = test: Evaluated for median life span in mice inoculated with lewis lung carcinoma at a dose of 50 mg/kg (Experiment-1)
Mus musculus [10] = test: Evaluated for increase in life span in mice inoculated with lewis lung carcinoma at a dose of 1.5 mg/kg (Experiment-2)
Mus musculus [11] = test: Evaluated for median life span in mice inoculated with lewis lung carcinoma at a dose of 12 mg/kg (Experiment-2)
Mus musculus [12] = test: Evaluated for median life span in mice inoculated with lewis lung carcinoma at a dose of 12 mg/kg (Experiment-1)
Mus musculus [13] = test: Evaluated for median life span in mice inoculated with lewis lung carcinoma at a dose of 200 mg/kg (Experiment-1)
Mus musculus [14] = test: Evaluated for increase in life span in mice inoculated with lewis lung carcinoma at a dose of 12 mg/kg (Experiment-1)
Mus musculus [15] = test: Evaluated for increase in life span in mice inoculated with lewis lung carcinoma at a dose of 50 mg/kg (Experiment-1)
Mus musculus [16] = test: Evaluated for median life span in mice inoculated with lewis lung carcinoma at a dose of 24 mg/kg (Experiment-2)
Mus musculus [17] = test: Evaluated for median life span in mice inoculated with lewis lung carcinoma at a dose of 25 mg/kg (Experiment-1)
Mus musculus [18] = test: Evaluated for increase in life span in mice inoculated with lewis lung carcinoma at a dose of 3 mg/kg (Experiment-2)
Mus musculus [19] = test: Evaluated for median life span in mice inoculated with lewis lung carcinoma at a dose of 3 mg/kg (Experiment-2)
L1210 [20] = test: Evaluated for cytotoxicity against L1210 cells; conditions: Mus musculus, read-out: ID50 (the source's name)
Mus musculus [21] = test: Evaluated for increase in life span in mice inoculated with lewis lung carcinoma at a dose of 12 mg/kg (Experiment-2)
Mus musculus [22] = test: Evaluated for median life span in mice inoculated with lewis lung carcinoma at a dose of 100 mg/kg (Experiment-1)
Mus musculus [23] = test: Evaluated for increase in life span in mice inoculated with lewis lung carcinoma at a dose of 100 mg/kg (Experiment-1)
Mus musculus [24] = test: Evaluated for median life span in mice inoculated with lewis lung carcinoma at a dose of 1.5 mg/kg (Experiment-2)
Mus musculus [25] = test: Evaluated for increase in life span in mice inoculated with lewis lung carcinoma at a dose of 25 mg/kg (Experiment-1)
Mus musculus [26] = test: Evaluated for increase in life span in mice inoculated with lewis lung carcinoma at a dose of 6 mg/kg (Experiment-2)
Mus musculus [27] = test: Evaluated for median life span in mice inoculated with lewis lung carcinoma at a dose of 6 mg/kg (Experiment-2)
Mus musculus [28] = test: Evaluated for increase in life span in mice inoculated with lewis lung carcinoma at a dose of 24 mg/kg (Experiment-2)
P388 = test: Evaluated for cytotoxicity against P-388 cells; conditions: Mus musculus, read-out: ID50 (the source's name)

**Q.** Which results are given for NC(=O)c1c[se]c([C@@H]2O[C@H](COP(=O)(O)O)[C@@H](O)[C@H]2O)n1?
**A.** MLS (Mus musculus [1]): 12.5 days; MLS (Mus musculus [2]): 15.5 days; MLS (Mus musculus [3]): 12.5 days; MLS (Mus musculus [4]): 12.5 days; MLS (Mus musculus [5]): 60 days; MLS (Mus musculus [6]): 12 days; IC50 (L1210 [7]): 390 nM; ILS at 13 mg/kg (Mus musculus [8]): 215%

**Q.** For NC(=O)c1c[se]c([C@@H]2O[C@H](CO)[C@@H](O)[C@H]2O)n1, which MLS (Mus musculus [9]) is on record?
**A.** The MLS was 60 days.

**Q.** And the ILS at 1.5 mg/kg (Mus musculus [10])?
**A.** Its ILS at 1.5 mg/kg is 10%.

**Q.** What about the MLS (Mus musculus [11]) of the same compound?
**A.** Its MLS is 60 days.

**Q.** And the MLS (Mus musculus [12])?
**A.** The MLS was 60 days.

**Q.** And the MLS (Mus musculus [13])?
**A.** The MLS was 10.7 days.

**Q.** And the ILS at 12 mg/kg (Mus musculus [14])?
**A.** The ILS at 12 mg/kg was 255%.

**Q.** And the ILS at 50 mg/kg (Mus musculus [15])?
**A.** Its ILS at 50 mg/kg is 255%.

**Q.** And the MLS (Mus musculus [16])?
**A.** The MLS was 60 days.

**Q.** What about the MLS (Mus musculus [17]) of the same compound?
**A.** Its MLS is 60 days.

**Q.** And the ILS at 3 mg/kg (Mus musculus [18])?
**A.** Its ILS at 3 mg/kg is 53%.

**Q.** And the MLS (Mus musculus [19])?
**A.** Its MLS is 31 days.

**Q.** What about the IC50 (L1210 [20]) of the same compound?
**A.** Its IC50 is 400 nM.

**Q.** And the ILS at 12 mg/kg (Mus musculus [21])?
**A.** The ILS at 12 mg/kg was 197%.

**Q.** What about the MLS (Mus musculus [22]) of the same compound?
**A.** The MLS was 20.3 days.

**Q.** And the ILS at 100 mg/kg (Mus musculus [23])?
**A.** The ILS at 100 mg/kg was 20%.

**Q.** And the MLS (Mus musculus [24])?
**A.** Its MLS is 22 days.

**Q.** And the ILS at 25 mg/kg (Mus musculus [25])?
**A.** The ILS at 25 mg/kg was 255%.

**Q.** And the ILS at 6 mg/kg (Mus musculus [26])?
**A.** The ILS at 6 mg/kg was 197%.

**Q.** What about the MLS (Mus musculus [27]) of the same compound?
**A.** Its MLS is 60 days.

**Q.** What about the ILS at 24 mg/kg (Mus musculus [28]) of the same compound?
**A.** The ILS at 24 mg/kg was 197%.

**Q.** And the IC50 (P388)?
**A.** Its IC50 is 300 nM.

**Q.** For NC(=O)c1csc([C@@H]2O[C@H](CO)[C@@H](O)[C@H]2O)n1 [TIAZOFURIN], which IC50 (L1210 [20]) is on record?
**A.** The IC50 was 1950 nM.
